Data reported in ChEMBL document CHEMBL5727197, “Bicyclic urea, thiourea, guanidine and cyanoguanidine compounds useful for the treatment of pain” (2019).

Biological target: High affinity nerve growth factor receptor (Homo sapiens, UniProt P04629)
Assay: Kinase Binding Assay: TrkA binding activity was determined in a TrkA LanthaScreen™ Eu Kinase Binding Assay. 5 nM His-tagged recombinant human TrkA (6HIS tagged cytoplasmic domain from Invitrogen, Catalog No. PV3144) was incubated with 4 nM Alexa-Fluor® Tracer 236 (Invitrogen Cat. No. PV5592), 2 nM biotinylated anti-His (Invitrogen Cat. No. PV6090), and 2 nM europium-labeled Streptavidin (Invitrogen Cat. No. PV5899), in buffer (25 mM MOPS, pH 7.5, 5 mM MgCl2, 0.005% Triton X-100). Three fold serial dilutions of compounds of the invention in DMSO were added to a final percentage of 2% DMSO. After 60-minute incubation at 22° C., the reaction was measured using the EnVision mutlimode plate reader (PerkinElmer) via TR-FRET dual wavelength detection at […]. The percent of control was calculated using a ratiometric emission factor.

Sequence of High affinity nerve growth factor receptor (P04629 whole entry, the tested form may be a part): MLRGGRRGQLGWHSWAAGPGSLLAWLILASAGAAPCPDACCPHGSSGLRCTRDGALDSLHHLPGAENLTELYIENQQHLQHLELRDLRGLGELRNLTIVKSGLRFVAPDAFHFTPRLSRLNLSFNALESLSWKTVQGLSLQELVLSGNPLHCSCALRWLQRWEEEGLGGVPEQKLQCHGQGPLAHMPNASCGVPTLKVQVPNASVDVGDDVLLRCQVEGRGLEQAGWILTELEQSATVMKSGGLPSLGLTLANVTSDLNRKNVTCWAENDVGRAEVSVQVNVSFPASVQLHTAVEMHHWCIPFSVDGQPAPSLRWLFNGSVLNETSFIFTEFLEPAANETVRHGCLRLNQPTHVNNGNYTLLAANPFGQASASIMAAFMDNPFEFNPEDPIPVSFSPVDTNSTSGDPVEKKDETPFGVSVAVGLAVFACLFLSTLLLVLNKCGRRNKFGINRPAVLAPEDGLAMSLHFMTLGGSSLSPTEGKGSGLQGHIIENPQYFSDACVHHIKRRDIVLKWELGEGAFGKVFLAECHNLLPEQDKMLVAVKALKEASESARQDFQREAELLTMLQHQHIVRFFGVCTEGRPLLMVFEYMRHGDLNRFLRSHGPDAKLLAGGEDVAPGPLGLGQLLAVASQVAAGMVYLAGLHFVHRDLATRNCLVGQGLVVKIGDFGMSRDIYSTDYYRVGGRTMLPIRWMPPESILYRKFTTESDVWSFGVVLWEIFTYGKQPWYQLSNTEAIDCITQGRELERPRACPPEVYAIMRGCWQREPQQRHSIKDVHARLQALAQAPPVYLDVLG

SMILES | IC50 [nM]
CC1(C)C[C@@H](O)[C@H](NC(=O)Nc2c3c(nn2-c2ccccc2)COC3)c2ccccc21 (relative stereo) | < 100
Cc1c(-c2ccc(=O)n(C)c2)nn(-c2ccccc2)c1NC(=O)NC1CN(CC(F)(F)F)Cc2ccccc21 (stereo not drawn) | < 100
CC(C)(C)OC(=O)N1CCO[C@@H](COc2nn(-c3ccccc3)c(NC(=O)N[C@@H]3c4ccccc4C4(CC4)[C@H]3O)c2Cl)C1 | < 100
